Ten compounds from ChEMBL document CHEMBL1131685, “Design and semisynthesis of spermine-sensitive Ribonuclease S'” (Bioorg Med Chem Lett, 1999) can be followed below.

The first data set can be described thus: Binding constant for spermine binding to Ribonuclease S (RNA ase) by saturation curve method.
`C1CNCCNCCNCCN1` showed a Log K of 3.7. Same read-out and setting: in the case of `NCCCCNCCCN` it was 5.4; in that of `NCCCNCCCCNCCCN`, 5; in that of `NCCN(CCN)CCN`, 5. As to `NCCNCCNCCN`, the Log K worked out at 5.

Another data set can be described thus: Association constant required to reduce the S-peptide / S-protein association by nonlinear curve fitting analysis. It is filed as ADME.
Take H-EETAEAKFERQHMDS-OH: the “Log K” value came to 6.5. The same measure, in the same setting: the result for H-KEDAADKFERQHMDS-OH reads 7.1; that for H-KEEAAAKFERQHMDS-OH, 7.1; that for H-KEEAAEKFERQHMDS-OH, 6.9.

As for H-KETAAAKFERQHMDS-OH, the “Log K” value was 7.6.
